Data on 9 molecules can be found in article PMC8734228 (Cancer discovery, 2021).

One data set concerns FLC1 PDX cells. The data set is described as follows: Validation screen, 11-point dose response, 72 h, Cell Titer Glo. Type of data set: cell-based, human. Particulars: read-out: EC50 FLC. For orientation: ATP-based viability assays read luminescence as a measure of living cells.
A further data set relates to FLC2 PDX cells. The description is as above. Type of data set: cell-based, human. The settings on record: read-out: EC50 FLC.
In another data set the test system is FLC3 PDX cells. The data set is described as above. Type of data set: cell-based, human. The settings on record: read-out: EC50 FLC.
A further data set deals with FLC4 PDX cells. The data set is described as above. In kind it is cell-based, human. The settings on record: read-out: EC50 FLC.
A further data set relates to FLC PDX cells. The data set is described as follows: Validation screen on cells dissociated from FLC PDX. Type of data set: cell-based, human. The settings on record: for Effect on FLC PDX cells in vitro (dose response, normalized percent survival): 10nM-10μM, 72 h, FLC1-6; for Efficacy ranking in the screen: ranked by average −log10EC50 for FLC1-5 minus −log10EC50 for PHH.

Another data set has as its target PKA. Particulars: read-out: Ki PKA; cited from earlier work.
Another data set addresses GSK-3β. The settings on record: read-out: Ki against other kinases: GSK-3β; cited from earlier work.
The target of a further data set is ERK2. Particulars: read-out: Ki against other kinases: ERK2; cited from earlier work.
In a further data set the target is PKCδ. Particulars: read-out: Ki against other kinases: PKCδ; cited from earlier work.
Another data set deals with RSK2. Particulars: read-out: Ki against other kinases: RSK2; cited from earlier work.
Another data set has as its system FLC5 PDX cells. The data set is described as follows: Validation screen, 11-point dose response, 72 h, Cell Titer Glo. The settings on record: read-out: EC50 FLC. In kind it is cell-based, human.
The next data set has as its system FLC5 cells. The data set is described as follows: Anchor screen, synergy assay. Particulars: FLC5, ZIP, Bliss and HSA scores. In kind it is cell-based, human.
The test system of data set [1] is cells dissociated directly from patient tumors (FLC.T6-T11). The data set is described as follows: Direct from patient in vitro screening. Particulars: for Drug sensitivity of FLC.T6 compared with derived PDX FLC6 (EC50): cells direct from patient tumor vs cells from its PDX; for Sensitivity of cells tested directly from patients: 10μM-10nM, 72h, Cell Titer Glo. In kind it is cell-based, human.

The next data set addresses Akt1. Particulars: read-out: Ki against other kinases: Akt1; cited from earlier work.
Another data set deals with Akt2. The settings on record: read-out: Ki against other kinases: Akt2; cited from earlier work.
Another data set concerns the target Akt3. The settings on record: read-out: Ki against other kinases: Akt3; cited from earlier work.
The target in the next data set is p70s6k. Particulars: read-out: Ki against other kinases: p70s6k; cited from earlier work.
The next data set addresses Rock1. The settings on record: read-out: Ki against other kinases: Rock1; cited from earlier work.
The next data set deals with Rock2. The settings on record: read-out: Ki against other kinases: Rock2; cited from earlier work.
Data set [2] has as its system primary human hepatocytes (PHH). The data set is described as follows: Validation counter-screen on primary human hepatocytes. The settings on record: 72 h; for EC50: read-out: EC50 PHH.
The next data set concerns PAK 1. The settings on record: read-out: IC50 PAK 1; cited from earlier work.
Another data set concerns PAK 2. Particulars: read-out: IC50 PAK 2; cited from earlier work.
Another data set deals with PAK 3. The settings on record: read-out: IC50 PAK 3; cited from earlier work.
For another data set, the target named is PKG. The settings on record: read-out: Ki against other kinases: PKG; printed as PKG/PKC; cited from earlier work.
A further data set addresses PKC. The settings on record: read-out: Ki against other kinases: PKC; printed as PKG/PKC; cited from earlier work.
The test system of a further data set is ErbB2. The settings on record: read-out: IC50 ErbB2; cited from earlier work.
The test system of another data set is EGFR. Particulars: read-out: IC50 EGFR; cited from earlier work.
In the next data set the test system is PI3K (p110α)/DNA-PK. The settings on record: read-out: IC50 PI3K (p110α)/DNA-PK; cited from earlier work.
Another data set has as its system mTOR. Particulars: read-out: IC50 mTOR; cited from earlier work.
The test system of another data set is FLC patients. Particulars: two FLC patients, clinical trial ref 10; cited from earlier work.
For the next data set, the system named is FLC1 cells. The data set is described as follows: Role of ROS: survival with or without N-acetyl cysteine 10mM. Particulars: NAC 10mM, 72 h. In kind it is cell-based, human.
Another data set relates to FLC1 PDX. The data set is described as follows: In vivo drug testing in mice bearing PDX FLC1. Particulars: 2 days, FLC1.
For another data set, the system named is FLC PDX. The data set is described as follows: In vivo drug testing of HDAC inhibitors in mice bearing PDX.
A further data set has as its system FLC5 PDX. The data set is described as follows: In vivo drug testing in mice bearing PDX FLC5. Particulars: panobinostat 2.5mg/kg combined with navitoclax 50 mg/kg.

Where two headings read alike, the source gives them in different places.

`Cc1[nH]nc2ccc(-c3cncc(OC[C@@H](N)Cc4ccccc4)c3)cc12` [A-674563]: the EC50 (commonly the midpoint of the concentration-response curve) in the data set on FLC1 PDX cells (FLC1, 72 h) was found to be 340 nM; in the data set with FLC2 PDX cells (FLC2, 72 h), 700 nM; in the data set on FLC3 PDX cells (FLC3, 72 h), 880 nM; with FLC4 PDX cells (FLC4, 72 h) it was 160 nM. The “Therapeutic window for FLC over PHH” value with FLC PDX cells (FLC PDX cells compared with PHH) is reported as “no therapeutic window”. For the same molecule, the Ki (as a rule, a measure of affinity in units of concentration, obtained from inhibition or displacement) on PKA is 16 nM; at GSK-3β, 110 nM; on ERK2, 260 nM; at PKCδ, 360 nM; on RSK2 it was 580 nM.
`NC[C@@](O)(c1ccc(Cl)cc1)c1ccc(-c2cn[nH]c2)cc1` [AT13148]: the EC50 came to 39 nM in the data set with FLC1 PDX cells (Homo sapiens, 72 h); 6140 nM in the data set with FLC2 PDX cells (Homo sapiens, 72 h); 590 nM in the data set with FLC3 PDX cells (Homo sapiens, 72 h); 4290 nM with FLC4 PDX cells (Homo sapiens, 72 h); 96 nM in the data set with FLC5 PDX cells (Homo sapiens, 72 h); 4050 nM in [2] (Homo sapiens, Hepatocyte). Further, the “Synergy with A1331852” value in the data set with FLC5 cells is “some synergy”. Besides, the “Drug sensitivity of FLC.T6 compared with derived PDX FLC6 (EC50)” value in data set [1] is “outliers”. Further, the Ki on PKA is 3 nM; on Akt1, 38 nM; on Akt2, 402 nM; on Akt3 it was 50 nM; on p70s6k, 8 nM; on Rock1, 6 nM. Besides, the Ki on Rock2 was 4 nM.
`CCn1c(=O)c(-c2ccc(-c3cncs3)cc2Cl)cc2cnc(Nc3ccc(N4CCN(C)CC4)cc3)nc21` [FRAX567]: the “Effect on FLC PDX cells in vitro (dose response, normalized percent survival)” value with FLC PDX cells was “consistent inhibition against all PDX”. Further, in the data set with FLC PDX cells, the “Efficacy ranking in the screen” value was found to be 12. Moreover, the IC50 is 8 nM with PAK 1, […] in the data set on PAK 2 and 19 nM in the data set on PAK 3.
For `CCCCCCOC(=O)[C@]1(O)C[C@@H]2O[C@@]1(C)n1c3ccccc3c3c4c(c5c6ccccc6n2c5c31)C(=O)NC4` [KT5720], the EC50 with FLC1 PDX cells (FLC1, 72 h) is 1610 nM; in the data set on FLC2 PDX cells (FLC2, 72 h), 2140 nM; with FLC3 PDX cells (FLC3, 72 h) it was 2710 nM; with FLC4 PDX cells (FLC4, 72 h), 1480 nM; in the data set with FLC5 PDX cells (FLC5, 72 h) it was 3870 nM; in data set [2], over 10000 nM. In addition, the Ki at PKA is 60 nM; on PKG, over 2000 nM; at PKC, over 2000 nM.
As to `CCOc1cc2ncc(C#N)c(Nc3ccc(OCc4ccccn4)c(Cl)c3)c2cc1NC(=O)/C=C/CN(C)C` [Neratinib], the “Effect on FLC PDX cells in vitro (dose response, normalized percent survival)” value in the data set on FLC PDX cells is “affected FLC1,5 in the micromolar range”. Also, in data set [1], the “Sensitivity of cells tested directly from patients” value (from here on “Sensitivity … from patients”) is on record as “no effect on three others”. Further, in [1], the “Drug sensitivity of FLC.T6 compared with derived PDX FLC6 (EC50)” value is reported as “correlated well”. For the same molecule, the IC50 in the data set with ErbB2 was 59 nM; with EGFR, 92 nM.
As to `Cc1ccc([N+](=O)[O-])cc1S(=O)(=O)N(C)/N=C/c1cnc2ccc(Br)cn12` [PIK-75], the “Effect on FLC PDX cells in vitro (dose response, normalized percent survival)” value with FLC PDX cells is given as “potent against FLC1,4 relative to PHH”. Also, the “Sensitivity … from patients” value in [1] was “sensitive”. In addition, in the data set on PI3K (p110α)/DNA-PK, the IC50 is 5.8 nM.
On to `CO[C@H]1C[C@@H]2CC[C@@H](C)[C@@](O)(O2)C(=O)C(=O)N2CCCC[C@H]2C(=O)O[C@H]([C@H](C)C[C@@H]2CC[C@@H](OCCO)[C@H](OC)C2)CC(=O)[C@H](C)/C=C(\C)[C@@H](O)[C@@H](OC)C(=O)[C@H](C)C[C@H](C)/C=C/C=C/C=C/1C` [everolimus], for which the “Synergy with A1331852” value in the data set with FLC5 cells was “some synergy”. In addition, the IC50 in the data set with mTOR was 1.6 to 2.4 nM.
As for `CN1CC[C@H](c2c(O)cc(O)c3c(=O)cc(-c4ccccc4Cl)oc23)[C@H](O)C1` [flavopiridol], the “Sensitivity … from patients” value in data set [1] is “some sensitivity”. The “Duration of stable disease” value with FLC patients is given as 17 months. Further, in data set [2] (up to 10 μM), the “Effect on PHH (dose response, normalized percent survival)” value is on record as “toxic”.
For `Cc1[nH]c2ccccc2c1CCNCc1ccc(/C=C/C(=O)NO)cc1` [panobinostat], the “Efficacy ranking in the screen” value in the data set with FLC PDX cells is listed as 103. Besides, the “Effect of N-acetyl cysteine (NAC) on the toxicity of the drug” value in the data set with FLC1 cells was “mildly attenuated”. In addition, the “Apoptosis (TUNEL), panobinostat alone compared to vehicle” value in the data set on FLC1 PDX (panobinostat 10mg/kg alone) was “no evidence of increased apoptosis”. Moreover, the “Apoptotic cells (TUNEL) with combined treatment” value with FLC1 PDX (panobinostat 10mg/kg combined with A1331852 25mg/kg) was “many apoptotic cells”. In addition, in the data set with FLC PDX (10mg/kg IP), the “Tumor growth at 7 days” value is −7% and the “Tumor growth at 14 days” value was found to be 4%. In the data set on FLC PDX (10mg/kg IP, 14 days), the Average weight loss is given as 11% and the “Tumor volume:mouse weight” value is recorded as “stable or decreased”. Further, in the data set with FLC PDX (10mg/kg, after 14 days), the “Apoptosis as assayed by TUNEL” value is “no increase in apoptosis”; the “Mitotic figures, Ki67 and pHH3 positive cells in tumors” value was “dramatic decrease”. Besides, the “Tumor response with combined treatment” value in the data set on FLC5 PDX is recorded as “partial response”. Moreover, in data set [1], the “Sensitivity … from patients” value was “sensitive” and the “Drug sensitivity of FLC.T6 compared with derived PDX FLC6 (EC50)” value was “correlated well”.
